Measurements from patent publication US5434171A, “Preparation of 3,4,4-trisubstituted-piperidinyl-N-alkylcarboxylates and intermediates” (priority 1993, dated 1995).
Where a name gives a salt, the structure may show the parent alone.

Legend:
[1] = Protocol: Alternatively, a crystalline salt of compound 19F.B. (free base) can be prepared as illustrated in Scheme 2 supra. Crystallization studies were conducted using 17 different acids with three solvents; ethyl acetate, acetone, and ethanol.
pKa determination = assay type: physicochemical; conditions: 67% aq. dmf

Row | Structure (SMILES) | stability of crystalline salt of 19F.B. [1] | pKa (pKa determination)
1 | O=C(O)C[C@H](O)C(=O)O [L-malic] | crystalline salts stable at 25 °C | 
2 | CC(C)COC(=O)CN [Isobutyl glycine, p-toluenesulfonic acid salt] |  | 7.68
3 | Cl [hydrochloric] | crystalline salts stable at 25 °C | 
